Laboratory results reported in patent US20230017045A1, “PYRIDINE AND PYRIMIDINE CARBOXYLATE HERBICIDES AND METHODS OF USE THEREOF” (Dow AgroSciences LLC, priority 2017, published 2023).

Test system: test plant species
Assay: Post-emergent herbicidal activity test (greenhouse, foliar spray, visual growth reduction)
Format: in vivo
Settings: post-emergence, 336 h, ALOMY: blackgrass (Alopecurus myosuroides), 140 g ai/ha, 14 days after application, read-out: Visual Growth Reduction (%) 14 Days After Application, ALOMY
Method in brief: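 Scoring used a 0 to 100 percent visual scale of growth reduction against solvent-treated controls, read 14 d after spraying. Applications went onto plants at first or second true leaf stage, 187 L/ha, with crop oil concentrate and X-77 surfactant in the carrier. Post-treatment watering was by subirrigation to avoid wash-off.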

| SMILES | pest or weed control at 140 g/ha |
| --- | --- |
| COC(=O)c1nc(-c2ccc(Cl)c(N(C)C)c2)ccc1Cl [F149, Methyl 3-chloro-6-(4-chloro-3-(dimethylamino)phenyl)picolinate] | 0 to 29% |
| COC(=O)c1nc(-c2c(Cl)cc(C(F)(F)F)cc2C#N)ccc1Cl [F118, Methyl 3-chloro-6-(2-chloro-6-cyano-4-(trifluoromethyl)phenyl)picolinate] | 30 to 44% |

Same assay, conditions: post-emergence, 336 h, AMARE: redroot pigweed (Amaranthus retroflexus), 140 g ai/ha, 14 days after application, read-out: Visual Growth Reduction (%) 14 Days After Application, AMARE

| SMILES | pest or weed control at 140 g/ha |
| --- | --- |
| COC(=O)c1nc(-c2ccc(Cl)c(N(C)C)c2)ccc1Cl [F149, Methyl 3-chloro-6-(4-chloro-3-(dimethylamino)phenyl)picolinate] | 75 to 84% |
| COC(=O)c1nc(-c2c(Cl)cc(C(F)(F)F)cc2C#N)ccc1Cl [F118, Methyl 3-chloro-6-(2-chloro-6-cyano-4-(trifluoromethyl)phenyl)picolinate] | 95 to 100% |

Same assay, conditions: post-emergence, 336 h, AVEFA: wild oat (Avena fatua), 140 g ai/ha, 14 days after application, read-out: Visual Growth Reduction (%) 14 Days After Application, AVEFA

| SMILES | pest or weed control at 140 g/ha |
| --- | --- |
| COC(=O)c1nc(-c2ccc(Cl)c(N(C)C)c2)ccc1Cl [F149, Methyl 3-chloro-6-(4-chloro-3-(dimethylamino)phenyl)picolinate] | 0 to 29% |
| COC(=O)c1nc(-c2c(Cl)cc(C(F)(F)F)cc2C#N)ccc1Cl [F118, Methyl 3-chloro-6-(2-chloro-6-cyano-4-(trifluoromethyl)phenyl)picolinate] | 60 to 74% |

Same assay, conditions: post-emergence, 336 h, CHEAL: lambsquarters (Chenopodium album), 140 g ai/ha, 14 days after application, read-out: Visual Growth Reduction (%) 14 Days After Application, CHEAL

| SMILES | pest or weed control at 140 g/ha |
| --- | --- |
| COC(=O)c1nc(-c2ccc(Cl)c(N(C)C)c2)ccc1Cl [F149, Methyl 3-chloro-6-(4-chloro-3-(dimethylamino)phenyl)picolinate] | 95 to 100% |
| COC(=O)c1nc(-c2c(Cl)cc(C(F)(F)F)cc2C#N)ccc1Cl [F118, Methyl 3-chloro-6-(2-chloro-6-cyano-4-(trifluoromethyl)phenyl)picolinate] | 95 to 100% |

Same assay, conditions: post-emergence, 336 h, CIRAR: canada thistle (Cirsium arvense), 140 g ai/ha, 14 days after application, read-out: Visual Growth Reduction (%) 14 Days After Application, CIRAR

| SMILES | pest or weed control at 140 g/ha |
| --- | --- |
| COC(=O)c1nc(-c2ccc(Cl)c(N(C)C)c2)ccc1Cl [F149, Methyl 3-chloro-6-(4-chloro-3-(dimethylamino)phenyl)picolinate] | 60 to 74% |
| COC(=O)c1nc(-c2c(Cl)cc(C(F)(F)F)cc2C#N)ccc1Cl [F118, Methyl 3-chloro-6-(2-chloro-6-cyano-4-(trifluoromethyl)phenyl)picolinate] | 95 to 100% |

Same assay, conditions: post-emergence, 336 h, CYPES: yellow nutsedge (Cyperus esculentus), 140 g ai/ha, 14 days after application, read-out: Visual Growth Reduction (%) 14 Days After Application, CYPES

| SMILES | pest or weed control at 140 g/ha |
| --- | --- |
| COC(=O)c1nc(-c2ccc(Cl)c(N(C)C)c2)ccc1Cl [F149, Methyl 3-chloro-6-(4-chloro-3-(dimethylamino)phenyl)picolinate] | 0 to 29% |
| COC(=O)c1nc(-c2c(Cl)cc(C(F)(F)F)cc2C#N)ccc1Cl [F118, Methyl 3-chloro-6-(2-chloro-6-cyano-4-(trifluoromethyl)phenyl)picolinate] | 45 to 59% |

Same assay, conditions: post-emergence, 336 h, DIGSA: crabgrass (Digitaria sanguinalis), 140 g ai/ha, 14 days after application, read-out: Visual Growth Reduction (%) 14 Days After Application, DIGSA

| SMILES | pest or weed control at 140 g/ha |
| --- | --- |
| COC(=O)c1nc(-c2ccc(Cl)c(N(C)C)c2)ccc1Cl [F149, Methyl 3-chloro-6-(4-chloro-3-(dimethylamino)phenyl)picolinate] | 0 to 29% |
| COC(=O)c1nc(-c2c(Cl)cc(C(F)(F)F)cc2C#N)ccc1Cl [F118, Methyl 3-chloro-6-(2-chloro-6-cyano-4-(trifluoromethyl)phenyl)picolinate] | 85 to 94% |

Same assay, conditions: post-emergence, 336 h, ECHCG: barnyardgrass (Echinochloa crus-galli), 140 g ai/ha, 14 days after application, read-out: Visual Growth Reduction (%) 14 Days After Application, ECHCG

| SMILES | pest or weed control at 140 g/ha |
| --- | --- |
| COC(=O)c1nc(-c2ccc(Cl)c(N(C)C)c2)ccc1Cl [F149, Methyl 3-chloro-6-(4-chloro-3-(dimethylamino)phenyl)picolinate] | 0 to 29% |
| COC(=O)c1nc(-c2c(Cl)cc(C(F)(F)F)cc2C#N)ccc1Cl [F118, Methyl 3-chloro-6-(2-chloro-6-cyano-4-(trifluoromethyl)phenyl)picolinate] | 85 to 94% |

Same assay, conditions: post-emergence, 336 h, IPOHE: ivy-leaf morning glory (Ipomoea hederacea), 140 g ai/ha, 14 days after application, read-out: Visual Growth Reduction (%) 14 Days After Application, IPOHE

| SMILES | pest or weed control at 140 g/ha |
| --- | --- |
| COC(=O)c1nc(-c2ccc(Cl)c(N(C)C)c2)ccc1Cl [F149, Methyl 3-chloro-6-(4-chloro-3-(dimethylamino)phenyl)picolinate] | 30 to 44% |
| COC(=O)c1nc(-c2c(Cl)cc(C(F)(F)F)cc2C#N)ccc1Cl [F118, Methyl 3-chloro-6-(2-chloro-6-cyano-4-(trifluoromethyl)phenyl)picolinate] | 95 to 100% |

Same assay, conditions: post-emergence, 336 h, KCHSC: kochia (Bassia scoparia), 140 g ai/ha, 14 days after application, read-out: Visual Growth Reduction (%) 14 Days After Application, KCHSC

| SMILES | pest or weed control at 140 g/ha |
| --- | --- |
| COC(=O)c1nc(-c2ccc(Cl)c(N(C)C)c2)ccc1Cl [F149, Methyl 3-chloro-6-(4-chloro-3-(dimethylamino)phenyl)picolinate] | 75 to 84% |
| COC(=O)c1nc(-c2c(Cl)cc(C(F)(F)F)cc2C#N)ccc1Cl [F118, Methyl 3-chloro-6-(2-chloro-6-cyano-4-(trifluoromethyl)phenyl)picolinate] | 95 to 100% |

Same assay, conditions: post-emergence, 336 h, ORYSA: rice (Oryza sativa), 140 g ai/ha, 14 days after application, read-out: Visual Growth Reduction (%) 14 Days After Application, ORYSA

| SMILES | pest or weed control at 140 g/ha |
| --- | --- |
| COC(=O)c1nc(-c2ccc(Cl)c(N(C)C)c2)ccc1Cl [F149, Methyl 3-chloro-6-(4-chloro-3-(dimethylamino)phenyl)picolinate] | 0 to 29% |
| COC(=O)c1nc(-c2c(Cl)cc(C(F)(F)F)cc2C#N)ccc1Cl [F118, Methyl 3-chloro-6-(2-chloro-6-cyano-4-(trifluoromethyl)phenyl)picolinate] | 60 to 74% |

Same assay, conditions: post-emergence, 336 h, SETFA: giant foxtail (Setaria faberi), 140 g ai/ha, 14 days after application, read-out: Visual Growth Reduction (%) 14 Days After Application, SETFA

| SMILES | pest or weed control at 140 g/ha |
| --- | --- |
| COC(=O)c1nc(-c2ccc(Cl)c(N(C)C)c2)ccc1Cl [F149, Methyl 3-chloro-6-(4-chloro-3-(dimethylamino)phenyl)picolinate] | 0 to 29% |
| COC(=O)c1nc(-c2c(Cl)cc(C(F)(F)F)cc2C#N)ccc1Cl [F118, Methyl 3-chloro-6-(2-chloro-6-cyano-4-(trifluoromethyl)phenyl)picolinate] | 60 to 74% |

Same assay, conditions: post-emergence, 336 h, SORVU: grain sorghum (Sorghum vulgare), 140 g ai/ha, 14 days after application, read-out: Visual Growth Reduction (%) 14 Days After Application, SORVU

| SMILES | pest or weed control at 140 g/ha |
| --- | --- |
| COC(=O)c1nc(-c2ccc(Cl)c(N(C)C)c2)ccc1Cl [F149, Methyl 3-chloro-6-(4-chloro-3-(dimethylamino)phenyl)picolinate] | 0 to 29% |
| COC(=O)c1nc(-c2c(Cl)cc(C(F)(F)F)cc2C#N)ccc1Cl [F118, Methyl 3-chloro-6-(2-chloro-6-cyano-4-(trifluoromethyl)phenyl)picolinate] | 85 to 94% |

Same assay, conditions: post-emergence, 336 h, STEME: common chickweed (Stellaria media), 140 g ai/ha, 14 days after application, read-out: Visual Growth Reduction (%) 14 Days After Application, STEME

| SMILES | pest or weed control at 140 g/ha |
| --- | --- |
| COC(=O)c1nc(-c2ccc(Cl)c(N(C)C)c2)ccc1Cl [F149, Methyl 3-chloro-6-(4-chloro-3-(dimethylamino)phenyl)picolinate] | 0 to 29% |
| COC(=O)c1nc(-c2c(Cl)cc(C(F)(F)F)cc2C#N)ccc1Cl [F118, Methyl 3-chloro-6-(2-chloro-6-cyano-4-(trifluoromethyl)phenyl)picolinate] | 0 to 29% |

Same assay, conditions: post-emergence, 336 h, TRZAS: wheat, spring (Triticum aestivum), 140 g ai/ha, 14 days after application, read-out: Visual Growth Reduction (%) 14 Days After Application, TRZAS

| SMILES | pest or weed control at 140 g/ha |
| --- | --- |
| COC(=O)c1nc(-c2ccc(Cl)c(N(C)C)c2)ccc1Cl [F149, Methyl 3-chloro-6-(4-chloro-3-(dimethylamino)phenyl)picolinate] | 0 to 29% |
| COC(=O)c1nc(-c2c(Cl)cc(C(F)(F)F)cc2C#N)ccc1Cl [F118, Methyl 3-chloro-6-(2-chloro-6-cyano-4-(trifluoromethyl)phenyl)picolinate] | 0 to 29% |
